The source of these data is patent publication US5002942A, “1,5-benzothiazepine derivatives, their preparation and their use in the treatment of cardiovascular disorders” (Sankyo Company, Limited, priority 1988, dated 1991).

One assay deals with T1, calcium channel (Cavia porcellus, UniProt O35505).
T1 construct: The taenia coli excised from a male guinea pig; from tissue; host or cells: guinea pig taenia coli (excised smooth muscle strip)
The assay is described as follows: Calcium channel blocking action (calcium-induced contraction of excised taenia coli). To be noted: 0.5 h, test compound 10^-8 g/ml, 30 minutes incubation, guinea pig taenia coli, hydrochlorides (Example 34: fumarate). The procedure: The taenia coli excised from a male guinea pig weighing from 250 to 300 g was cut into a length of 6 to 7 mm and suspended in an organ bath filled with Tylord's solution (sodium chloride 97 mM, potassium chloride 40 mM, sodium hydrogen carbonate 11.9 mM, disodium hydrogen phosphate 0.4 mM, glucose 5.5 mM; pH 7.1). The bath solution contained no calcium ions and was aerated with a mixture of 95% oxygen and 5% carbon dioxide by volume. To this solution were added 10 and 30 mM solutions of calcium chloride at 30 minute intervals to obtain a final concentration of 0.4 mM. The tension which developed 1n the taenia coli was measured by an isometric transducer. The organ bath was then washed twice or more with Tylord's solution containing no calcium ions after which it was allowed to equilibrate for 30 minutes. After the muscle had stabilised, test compound dissolved in physiological saline was added to the bath to a final concentration of 10^-8 g/ml, and the bath was incubated for 30 minutes. 30 and 100 mM solutions of calcium chloride were again added to the bath, and the developed tension was measured. From the magnitude of the calcium-induced contraction before and after the test drug had been added the inhibitory rate was calculated using the following formula: [formula] where: Co=contraction induced by calcium ion before a test drug was added: and
Ct=contraction induced by calcium ion after the test drug had been added.
In addition to the compounds of the invention, we also carried out the same test with the following compounds of the prior art: (±)-diltiazem, […], (±)-8-chlorodiltiazem (8-Cl-diltiazem). (±)-8-methoxydiltiazem (8-MeO-diltiazem) and (±)-8-benzyloxydiltiazem (8-BzO-diltiazem).
In the Table, the compounds of the invention are identified by the number of the one of the foregoing Examples in which the compound was prepared. The prior art compounds are identified by the abbreviated generic names shown above in parentheses.
All of the compounds except for that of Example 34 were employed as the hydrochlorides; that of Example 34 was employed as the fumarate.

For assay [1], the system named is SHR (spontaneously hypertensive rats). The assay is described as follows: Antihypertensive action in SHR. In kind it is in vivo. To be noted: conscious male SHR, hydrochlorides, 24 hours. The procedure:
Male SHR (spontaneously hypertensive rats), 23 to 30 weeks old, were anesthesized with sodium pentobarbital 50 mg/kg intraperitoneal administration), and a polyethylene cannula was inserted through the left femoral artery into the abdominal aorta. The other end of the cannula was led out of the body and fixed at the back of the neck. One week after the operation, when the animal had recovered from the stress of the surgery, the other end of the cannula was connected to a blood pressure measuring device, which was constructed according to the directions of Laffan et al. [Laffan, P.J., Peterson A., Hitch S,W. and Jeunelot C., Cardiovascular Res. 6. 319-324 (1972)], but with slight modifications. The blood pressure and heart rate of the conscious and […] SHR were measured. After the blood pressure and the heart rate had stabilised for more than one hour, the test drug was administered by […]. After administration of the test sample, the blood pressure and the heart rate were measured every 15 minutes over a period of 24 hours. The maximum decrease in blood pressure and the half-time of the blood pressure lowering activity thus determined are shown in Table 6.
All of the test compounds were employed as the hydrochlorides.

Where [2] appears, read: Rattus norvegicus, po, Dose 30 mg/kg, read-out: Maximum hypotension (%).
Setting [3] is: Rattus norvegicus, po, Dose 10 mg/kg, read-out: Maximum hypotension (%).

T1 sequence (O35505 whole entry): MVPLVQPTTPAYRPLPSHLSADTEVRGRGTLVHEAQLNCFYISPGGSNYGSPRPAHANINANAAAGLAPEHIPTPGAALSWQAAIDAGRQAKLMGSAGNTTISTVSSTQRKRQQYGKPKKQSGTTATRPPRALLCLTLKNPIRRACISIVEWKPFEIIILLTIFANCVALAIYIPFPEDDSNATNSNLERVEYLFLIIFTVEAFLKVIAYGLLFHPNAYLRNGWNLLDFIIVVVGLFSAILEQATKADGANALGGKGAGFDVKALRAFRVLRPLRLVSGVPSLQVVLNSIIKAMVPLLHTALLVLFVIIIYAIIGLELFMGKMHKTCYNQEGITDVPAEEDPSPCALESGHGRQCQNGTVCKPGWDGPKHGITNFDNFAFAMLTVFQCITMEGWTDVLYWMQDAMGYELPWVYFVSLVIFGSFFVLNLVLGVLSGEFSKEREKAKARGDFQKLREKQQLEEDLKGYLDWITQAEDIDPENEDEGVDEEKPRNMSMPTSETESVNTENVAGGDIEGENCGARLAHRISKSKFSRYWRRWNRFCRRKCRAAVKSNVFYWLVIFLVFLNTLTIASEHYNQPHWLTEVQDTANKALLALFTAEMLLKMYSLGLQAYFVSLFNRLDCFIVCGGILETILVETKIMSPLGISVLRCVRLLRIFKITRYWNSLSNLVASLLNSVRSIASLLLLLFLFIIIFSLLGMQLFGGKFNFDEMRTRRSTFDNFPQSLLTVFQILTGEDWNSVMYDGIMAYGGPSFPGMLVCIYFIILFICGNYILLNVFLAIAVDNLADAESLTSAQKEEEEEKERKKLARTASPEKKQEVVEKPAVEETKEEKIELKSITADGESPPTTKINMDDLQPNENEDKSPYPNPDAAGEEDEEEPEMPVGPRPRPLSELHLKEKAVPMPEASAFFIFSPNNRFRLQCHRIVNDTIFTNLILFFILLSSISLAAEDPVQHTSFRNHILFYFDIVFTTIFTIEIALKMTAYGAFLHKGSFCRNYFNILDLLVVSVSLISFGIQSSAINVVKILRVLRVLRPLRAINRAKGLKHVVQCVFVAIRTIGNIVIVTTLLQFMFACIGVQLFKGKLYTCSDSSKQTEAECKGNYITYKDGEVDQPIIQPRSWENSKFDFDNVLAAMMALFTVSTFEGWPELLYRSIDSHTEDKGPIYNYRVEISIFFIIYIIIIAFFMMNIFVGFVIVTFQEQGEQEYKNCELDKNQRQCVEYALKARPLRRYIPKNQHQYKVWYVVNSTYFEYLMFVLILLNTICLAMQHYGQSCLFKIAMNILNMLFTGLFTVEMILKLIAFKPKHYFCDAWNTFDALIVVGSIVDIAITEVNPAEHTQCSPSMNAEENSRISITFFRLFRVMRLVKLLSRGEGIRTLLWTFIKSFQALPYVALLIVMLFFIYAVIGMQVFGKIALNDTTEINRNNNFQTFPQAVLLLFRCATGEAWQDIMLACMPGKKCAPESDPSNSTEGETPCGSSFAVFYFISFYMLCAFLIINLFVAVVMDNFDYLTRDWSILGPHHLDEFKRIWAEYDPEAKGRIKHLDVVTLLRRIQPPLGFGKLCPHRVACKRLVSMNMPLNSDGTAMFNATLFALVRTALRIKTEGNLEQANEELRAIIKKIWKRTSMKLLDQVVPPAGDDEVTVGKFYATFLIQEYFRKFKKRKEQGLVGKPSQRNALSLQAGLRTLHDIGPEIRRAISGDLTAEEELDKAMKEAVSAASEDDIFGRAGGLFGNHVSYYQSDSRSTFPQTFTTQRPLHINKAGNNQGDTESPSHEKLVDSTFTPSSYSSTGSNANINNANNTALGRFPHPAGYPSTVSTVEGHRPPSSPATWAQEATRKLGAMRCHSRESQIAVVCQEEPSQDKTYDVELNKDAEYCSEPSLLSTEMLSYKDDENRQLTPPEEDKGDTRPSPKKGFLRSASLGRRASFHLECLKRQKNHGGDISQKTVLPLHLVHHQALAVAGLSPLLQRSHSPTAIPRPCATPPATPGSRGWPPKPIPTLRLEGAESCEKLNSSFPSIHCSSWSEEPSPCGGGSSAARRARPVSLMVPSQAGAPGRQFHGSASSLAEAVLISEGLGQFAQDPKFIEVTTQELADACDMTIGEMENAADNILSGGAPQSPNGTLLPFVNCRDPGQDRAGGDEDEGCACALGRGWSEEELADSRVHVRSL

For the molecule `COc1ccc([C@@H]2Sc3cc(OCc4ccccc4)ccc3N(CCN(C)C)C(=O)[C@@H]2OC(C)=O)cc1` (racemic) [(±)-8-BzO-diltiazem, cis-3-acetoxy-8-benzyloxy-2,3-dihydro-5-(2-dimethylaminoethyl)-2-(4-methoxyphenyl)-1,5-benzothiazepin-4(5H)-one, reference compound], on calcium channel, the inhibition (in general, the percentage by which the read-out fell short of the control) at 0.01 µg/mL was determined as 55%. Also, in assay [1] (Dose 30 mg/kg), the “Half-time of hypotension action” value was determined as 7.7 h. In assay [1] (setting [2]), the change in vivo at 30 mg/kg was -19%.

Take `COc1ccc([C@@H]2Sc3cc(Oc4ccccc4)ccc3N(CCN(C)C)C(=O)[C@@H]2OC(C)=O)cc1` (racemic) [Example 2, (±)-Cis-3-acetoxy-5-(2-dimethylaminoethyl)-2,3-dihydro-2-(4-methoxyphenyl)-8-phenoxy-1,5-benzothiazepin-4(5H)-one]: on calcium channel, the inhibition at 0.01 µg/mL was 58%. Moreover, in assay [1] (Dose 30 mg/kg), the “Half-time of hypotension action” value was 13.9 h. Besides, the change in vivo at 30 mg/kg in assay [1] (setting [2]) is -34%.

On to `COc1ccc([C@@H]2Sc3cc(Oc4ccccc4)ccc3N(CCN(C)C)C(=O)[C@@H]2OC(C)=O)cc1F` (racemic) [Example 4, (±)-Cis-3-acetoxy-5-(2-dimethylaminoethyl)-2-(3-fluoro-4-methoxyphenyl)-2,3-dihydro-8-phenoxy-1,5-benzothiazepin-4(5H)-one], for which the inhibition at 0.01 µg/mL at calcium channel was 84%. Moreover, the “Half-time of hypotension action” value in assay [1] (Dose 30 mg/kg) worked out at 16.0 h. Besides, the change in vivo at 30 mg/kg in assay [1] (setting [2]) was -36%.

`COc1ccc([C@@H]2Sc3cc(Oc4ccc(F)cc4)ccc3N(CCN(C)C)C(=O)[C@@H]2OC(C)=O)cc1` (racemic) [Example 22, (±)-cis-3-Acetoxy-5-(2-dimethylaminoethyl)-8-(4-fluoro-phenoxy)-2,3-dihydro-2-(4-methoxyphenyl)-1,5-benzothiazepin-4(5H)-one]: the inhibition at 0.01 µg/mL at calcium channel came to 52%.

With `COc1ccc([C@@H]2Sc3cc(Oc4ccc(F)cc4)ccc3N(CCN(C)C)C(=O)[C@@H]2OC(C)=O)cc1F` (racemic) [Example 24, (±)-cis-3-Acetoxy-5-(2-dimethylaminoethyl)-2-(3-fluoro-4-methoxyphenyl)-8-(4-fluorophenoxy)-2,3-dihydro-1,5-benzothiazepin-4(5H)-one], the inhibition at 0.01 µg/mL on calcium channel was determined as 93%.

Turning to `COc1ccc([C@@H]2Sc3cc(Cl)ccc3N(CCN(C)C)C(=O)[C@@H]2OC(C)=O)cc1` (relative stereo) [(±)-8-Cl-diltiazem, cis-3-acetoxy-8-chloro-2,3-dihydro-5-(2-dimethylaminoethyl)-2-(4-methoxyphenyl)-1,5-benzothiazepin-4(5E,uns/H/ )-one, reference compound], the inhibition at 0.01 µg/mL on calcium channel came out at 56%. Besides, in assay [1] (Dose 30 mg/kg), the “Half-time of hypotension action” value is 6.1 h. The change in vivo at 30 mg/kg in assay [1] (setting [2]) is -32%.

As to `COc1ccc([C@@H]2Sc3cc(OC)ccc3N(CCN(C)C)C(=O)[C@@H]2OC(C)=O)cc1` (relative stereo) [(±)-8-MeO-diltiazem, cis-3-acetoxy-8-methoxy-2,3-dihydro-5-(2-dimethylaminoethyl)-2-(4-methoxyphenyl)-1,5-benzotbiazepin-4(5E,uns/H/ )-one, reference compound], the inhibition at 0.01 µg/mL at calcium channel was found to be 67%. Further, the “Half-time of hypotension action” value in assay [1] (Dose 30 mg/kg) came to 5.8 h. For the same molecule, the change in vivo at 30 mg/kg in assay [1] (setting [2]) was -35%.

Take `COc1ccc([C@@H]2Sc3ccccc3N(CCN(C)C)C(=O)[C@@H]2OC(C)=O)cc1` (relative stereo) [(±)-diltiazem, reference compound]: the inhibition at 0.01 µg/mL on calcium channel worked out at 11%. The “Half-time of hypotension action” value in assay [1] (Dose 30 mg/kg) came out at 3.8 h. Further, the change in vivo at 30 mg/kg in assay [1] (setting [2]) was -17%.

Consider `CC(=O)O[C@H]1C(=O)N(CCN(C)C)c2ccc(Oc3ccccc3)cc2S[C@H]1c1ccc2c(c1)OCO2` (relative stereo) [Example 6, (±)-Cis-3-acetoxy-5-(2-dimethylaminoethyl)-2,3-dihydro-2-(3,4-methylenedioxyphenyl)-8-phenoxy-1,5-benzothiazepin-(5H)-one], for which the inhibition at 0.01 µg/mL at calcium channel came out at 53%.

As to `COc1ccc(Oc2ccc3c(c2)S[C@@H](c2ccc(OC)cc2)[C@@H](OC(C)=O)C(=O)N3CCN(C)C)cc1` (relative stereo) [Example 28, (±)-cis-3-Acetoxy-5-(2-dimethylaminoethyl)-2,3-dihydro-8-(4-methoxyphenoxy)-2-(4-methoxyphenyl)-1,5-benzothlazepin-4-(5H)-one], at calcium channel, the inhibition at 0.01 µg/mL was 59%.

`COc1ccc([C@@H]2Sc3cc(Oc4ccc(Cl)cc4)ccc3N(CCN(C)C)C(=O)[C@@H]2OC(C)=O)cc1` (relative stereo) [Example 30, (±)-cis-3-Acetoxy-8-(4-chlorophenoxy)-2,3-dihydro-5-(2-dimethylaminoethyl)-2-(4-methoxyphenyl)-1,5-benzothiazepin-4-(5H)-one]: the inhibition at 0.01 µg/mL on calcium channel is 56%.

In the case of `COc1ccc([C@@H]2Sc3ccccc3N(CCN(C)C)C(=O)[C@@H]2OC(C)=O)cc1` [(+)-diltiazem, (2, 3S)-cis-3-acetoxy-2,3-dihydro-5-(2-dimethylaminoethyl)-2-(4-methoxyphenyl)-1,5-benzothiazepin-4(5H)-one, reference compound], at calcium channel, the inhibition at 0.01 µg/mL stood at 20%. Also, the “Half-time of hypotension action” value in assay [1] (Dose 10 mg/kg) stood at 3.3 h. The change in vivo at 10 mg/kg in assay [1] (setting [3]) is -15%.

As to `COc1ccc([C@@H]2Sc3cc(Oc4ccccc4)ccc3N(CCN(C)C)C(=O)[C@@H]2OC(C)=O)cc1` [Example 12, (2S, 3S)-3-Acetoxy-5-(2-dimethylaminoethyl)-2,3-dihydro-2-(4-methoxyphenyl1}-8-phenoxy-1,5-benzothiazepin-4(5H)-one], at calcium channel, the inhibition at 0.01 µg/mL came to 86%. Also, the “Half-time of hypotension action” value in assay [1] (Dose 5 mg/kg) stood at 11.8 h. The change in vivo at 5 mg/kg in assay [1] (Rattus norvegicus, po, Dose 5 mg/kg, read-out: Maximum hypotension (%)) was -38%.

For the molecule `COc1ccc([C@@H]2Sc3cc(Oc4ccc(F)cc4)ccc3N(CCN(C)C)C(=O)[C@@H]2OC(C)=O)cc1` [Example 14, (2S, 3S)-3-Acetoxy-5-(2-dimethylaminoethyl)-8-(4-fluoro-phenoxy)-2,3-dihydro-2-(4-methoxyphenyl)-1,5-benzothiazpin-4(5H)-one], the inhibition at 0.01 µg/mL on calcium channel was found to be 94%. Moreover, the “Half-time of hypotension action” value in assay [1] (Dose 10 mg/kg) was 12.7 h. For the same molecule, the change in vivo at 10 mg/kg in assay [1] (setting [3]) is -37%.

Consider `COc1ccc([C@@H]2Sc3cc(Oc4ccccc4)ccc3N(CCN(C)C)C(=O)[C@@H]2OC(C)=O)cc1F` [Example 16, (2S, 3S)-3-Acetoxy-5-(2-dimethylaminoethyl)-2-(3-fluoro-4-methoxyphenvl)-2,3-dihydro-8-phenoxy-1,5-benzothiazepin-4(5H)-one], for which, on calcium channel, the inhibition at 0.01 µg/mL amounted to 80%. Besides, in assay [1] (Dose 3 mg/kg), the “Half-time of hypotension action” value turned out to be 9.4 h. In addition, in assay [1] (Rattus norvegicus, po, Dose 3 mg/kg, read-out: Maximum hypotension (%)), the change in vivo at 3 mg/kg was -21%.

Regarding `COc1ccc([C@@H]2Sc3cc(Cc4ccccc4)ccc3N(CCN(C)C)C(=O)[C@@H]2OC(C)=O)cc1` [Example 18], the inhibition at 0.01 µg/mL on calcium channel was determined as 77%. In addition, the “Half-time of hypotension action” value in assay [1] (Dose 10 mg/kg) worked out at 13.8 h. The change in vivo at 10 mg/kg in assay [1] (setting [3]) was -32%.

Consider `COc1ccc([C@@H]2Sc3cc(Oc4ccc5c(c4)OCO5)ccc3N(CCN(C)C)C(=O)[C@@H]2OC(C)=O)cc1` [Example 34, (2S, 3S)-3-Acetoxy-5-(2-dimethylaminoethyl)-2,3-dihydro-2-(4-methoxyphenyl)-8-(3,4-methylenedioxyphenoxy)-1,5-benzothiazepin-4(5H)-one], for which the inhibition at 0.01 µg/mL on calcium channel is 88%.
